Measured values published in patent US20240277860A1, “CAMPTOTHECIN PEPTIDE CONJUGATES” (priority 2019, published 2024).
Read-outs that look alike come from different tables or passages of the source.

Legend:
Format in all cases: cell-based
[1] = test system: multiple myeloma cells (MM.1R); experiment: In vitro potency, CellTiter-Glo growth inhibition, MM.1R; details: 96 h, read-out: IC50 MM.1R
Protocol: (§1) In vitro potency was assessed on multiple cancer cell lines. All cell lines were authenticated by STR profiling at IDEXX Bioresearch and cultured for no more than 2 months after resuscitation. Cells cultured in log-phase growth were seeded for 24 hours in 96-well plates containing 150 μl RPMI 1640 supplemented with 20% FBS. Serial dilutions of antibody-drug conjugates in cell culture media were prepared at 4× working concentrations, and 50 μl of each dilution was added to the 96-well plates. Following addition of test articles, cells were incubated with test articles for 4 days at 37° C. After 96 hours, growth inhibition was assessed by CellTiter-Glo® (Promega, Madison, WI) and luminescence was measured on a plate reader. The IC50 value, determined in triplicate, is defined here as the concentration that results in 50% reduction in cell growth relative to untreated controls.
(§2) In the following Tables IC50 values for ADCs and campthothecin free drugs are given in ng/mL and […] concentrations, respectively. Cell viability was determined by CellTiter-Glo staining after 96 h exposure to ADC. ND=Not Determined. Ag1 is an antibody targeting a ubiquitous and readily internalizable antigen on cancer cells.

[2] = test system: acute myeloid leukemia cells (MOLM13); experiment: In vitro potency, CellTiter-Glo growth inhibition, MOLM-13; details: Homo sapiens, read-out: IC50 MOLM-13
Protocol: as §1, §2

[3] = test system: renal carcinoma cells (786-O); experiment: In vitro potency, CellTiter-Glo growth inhibition, 786-O; details: Homo sapiens, read-out: IC50 786-O
Protocol: as §1, §2

[4] = test system: MDR(−) acute promyelocytic leukemia cells (HL-60); experiment: In vitro potency, CellTiter-Glo growth inhibition, HL-60; details: Homo sapiens, read-out: IC50 HL-60
Protocol: as §1, §2

[5] = test system: Burkitt's lymphoma cells (Ramos); experiment: In vitro potency, CellTiter-Glo growth inhibition, Ramos; details: Homo sapiens, 96 h, read-out: IC50 Ramos
Protocol: as §1, §2

[6] = test system: Hodgkin's lymphoma cells (L540cy); experiment: In vitro potency, CellTiter-Glo growth inhibition, L540cy; details: 96 h, read-out: IC50 L540cy
Protocol: as §1, §2

[7] = test system: MDR(+) acute promyelocytic leukemia cells (HL60/RV); experiment: In vitro potency, CellTiter-Glo growth inhibition, HL60/RV; details: Homo sapiens, read-out: IC50 HL60/RV
Protocol: as §1, §2

[8] = test system: B-lymphocyte cancer cells (SU-DHL-4); experiment: In vitro potency, CellTiter-Glo growth inhibition, SU-DHL-4; details: Homo sapiens, read-out: IC50 SU-DHL-4
Protocol: as §1, §2

[9] = test system: B-lymphocyte cancer cells (U266); experiment: In vitro potency, CellTiter-Glo growth inhibition, U-266; details: Homo sapiens, read-out: IC50 U-266
Protocol: as §1, §2

[10] = test system: melanoma cells (SK-MEL-5); experiment: In vitro potency, CellTiter-Glo growth inhibition, SK-MEL-5; details: Homo sapiens, read-out: IC50 SK-MEL-5
Protocol: as §1, §2

[11] = test system: pancreatic cancer cells (BxPC3); experiment: In vitro potency, CellTiter-Glo growth inhibition, BxPC3; details: Homo sapiens, read-out: IC50 BxPC3
Protocol: as §1, §2

[12] = camptothecin free drugs, CellTiter-Glo
[13] = MOLM-13, camptothecin free drugs, 96 h, CellTiter-Glo
[14] = 786-0, camptothecin free drugs, 96 h, CellTiter-Glo
[15] = HL-60, camptothecin free drugs, 96 h, CellTiter-Glo
[16] = SU-DHL-4, camptothecin free drugs, 96 h, CellTiter-Glo
[17] = U-266, camptothecin free drugs, 96 h, CellTiter-Glo
[18] = SK-MEL-5, camptothecin free drugs, 96 h, CellTiter-Glo
[19] = BXPC-3, camptothecin free drugs, 96 h, CellTiter-Glo

SMILES | IC50 [1, 12] [nM] | IC50 [2, 13] [nM] | IC50 [3, 14] [nM] | IC50 [4, 15] [nM] | IC50 [5, 12] [nM] | IC50 [6, 12] [nM] | IC50 [7, 15] [nM] | IC50 [8, 16] [nM] | IC50 [9, 17] [nM] | IC50 [1] [nM] | IC50 ([2]; MOLM-13, 96 h) [nM] | IC50 ([3]; 786-0, 96 h) [nM] | IC50 ([4]; HL-60, 96 h) [nM] | IC50 [5] [nM] | IC50 [6] [nM] | IC50 ([7]; HL-60, 96 h) [nM] | IC50 ([8]; SU-DHL-4, 96 h) [nM] | IC50 ([9]; U-266, 96 h) [nM] | IC50 ([10]; SK-MEL-5, 96 h) [nM] | IC50 ([11]; BXPC-3, 96 h) [nM] | other results
CC[C@@]1(O)C(=O)OCc2c1cc1n(c2=O)Cc2c-1nc1cc3c(cc1c2CNC(=O)[C@@H](N)CCC(=O)O)OCO3 [Compound 3k] | 576 | > 1000 | 21 | > 1000 | 451 | 415 | > 1000 | 667 | > 1000 | – | – | – | – | – | – | – | – | – | – | – | IC50 [10, 18]: > 1000 nM; IC50 [11, 19]: > 1000 nM
CC[C@@]1(O)C(=O)OCc2c1cc1n(c2=O)Cc2c-1nc1cc3c(cc1c2CNC(=O)C(C)(C)N)OCO3 [Compound 3d] | – | – | – | – | – | – | – | – | – | 3 | 5 | > 1000 | 25 | 1 | 4 | 840 | 3 | 4 | 14 | 10 | –
CC[C@@]1(O)C(=O)OCc2c1cc1n(c2=O)Cc2c-1nc1cc3c(cc1c2CNC(=O)[C@@H](N)CCCCN)OCO3 [Compound 3h] | – | – | – | – | – | – | – | – | – | 13 | 97 | > 1000 | 552 | 12 | 7 | 128 | 14 | 36 | 60 | 42 | –
CC[C@@]1(O)C(=O)OCc2c1cc1n(c2=O)Cc2c-1nc1cc3c(cc1c2CNC(=O)[C@@H](N)Cc1c[nH]c2ccccc12)OCO3 [Compound 3n] | 74 | 80 | 83 | 526 | 18 | 185 | > 1000 | 27 | 62 | – | – | – | – | – | – | – | – | – | – | – | IC50 [10, 18]: 330 nM; IC50 [11, 19]: 143 nM
CC[C@@]1(O)C(=O)OCc2c1cc1n(c2=O)Cc2c-1nc1cc3c(cc1c2CNC(=O)[C@H](C)N)OCO3 [Compound 3a] | – | – | – | – | – | – | – | – | – | 8 | 23 | 381 | 106 | 6 | 12 | 416 | 8 | 20 | 49 | 42 | –
CC[C@@]1(O)C(=O)OCc2c1cc1n(c2=O)Cc2c-1nc1cc3c(cc1c2CNC(=O)[C@@H](N)Cc1c[nH]cn1)OCO3 [Compound 3i] | 147 | 996 | 22 | > 1000 | 197 | 321 | > 1000 | 255 | 452 | – | – | – | – | – | – | – | – | – | – | – | IC50 [10, 18]: 414 nM; IC50 [11, 19]: 331 nM
CC[C@@]1(O)C(=O)OCc2c1cc1n(c2=O)Cc2c-1nc1cc3c(cc1c2CNC(=O)[C@@H](N)CCC(N)=O)OCO3 [Compound 3m] | – | – | – | – | – | – | – | – | – | 30 | 125 | 51 | 823 | 34 | 76 | > 1000 | 71 | 86 | 208 | 160 | –
CC[C@@]1(O)C(=O)OCc2c1cc1n(c2=O)Cc2c-1nc1cc3c(cc1c2CNC(=O)[C@@H](N)C(C)C)OCO3 [Compound 3b] | – | – | – | – | – | – | – | – | – | 4 | 5 | > 1000 | 23 | 1 | 6 | 857 | 2 | 8 | 14 | 12 | –
CC[C@@]1(O)C(=O)OCc2c1cc1n(c2=O)Cc2c-1nc1cc3c(cc1c2CNC(=O)[C@@H](N)CC(=O)O)OCO3 [Compound 3j] | – | – | – | – | – | – | – | – | – | 318 | 588 | 26 | > 1000 | 99 | 687 | > 1000 | 145 | 436 | 910 | 648 | –
CC[C@@]1(O)C(=O)OCc2c1cc1n(c2=O)Cc2c-1nc1cc3c(cc1c2CNC(=O)[C@@H](N)CCCNC(=N)N)OCO3 [Compound 3g] | 6 | 57 | > 1000 | 191 | 6 | 4 | 51 | 6 | 15 | – | – | – | – | – | – | – | – | – | – | – | IC50 [10, 18]: 34 nM; IC50 [11, 19]: 18 nM
CC[C@@]1(O)C(=O)OCc2c1cc1n(c2=O)Cc2c-1nc1cc3c(cc1c2CNC(=O)[C@@H](N)Cc1ccccc1)OCO3 [Compound 3f] | 9 | 14 | > 1000 | 88 | 4 | 34 | > 1000 | 5 | 17 | – | – | – | – | – | – | – | – | – | – | – | IC50 [10, 18]: 45 nM; IC50 [11, 19]: 39 nM
CC[C@@]1(O)C(=O)OCc2c1cc1n(c2=O)Cc2c-1nc1cc3c(cc1c2CNC(=O)[C@@H](N)CCSC)OCO3 [Compound 3e] | – | – | – | – | – | – | – | – | – | 6 | 16 | > 1000 | 92 | 4 | 13 | 370 | 5 | 12 | 27 | 19 | –
CC[C@@]1(O)C(=O)OCc2c1cc1n(c2=O)Cc2c-1nc1cc3c(cc1c2CNC(=O)[C@@H](N)CC(C)C)OCO3 [Compound 3] | – | – | – | – | – | – | – | – | – | 4 | 8 | > 1000 | 30 | 2 | 5 | 194 | 3 | 6 | 15 | 9 | –
CC[C@@]1(O)C(=O)OCc2c1cc1n(c2=O)Cc2c-1nc1cc3c(cc1c2CNC(=O)[C@@H](N)[C@@H](C)O)OCO3 [Compound 3l] | – | – | – | – | – | – | – | – | – | 22 | 45 | > 1000 | 298 | 8 | 27 | > 1000 | 16 | 57 | 109 | 64 | –
